From US5030638A, “Method of antiviral enhancement” (priority 1990, dated 1991)
Converted amounts (≈) assume the structure as drawn. Read-outs that look alike come from different tables or passages of the source. One block for each compound: values may come before it.

Legend:
HIV = conditions: cited from earlier work
HIV-1, strain HTLV-IIIB = experiment: Reduction of cytopathogenic effect (CPE) in HIV-1 infected CEM cells, MTT assay; format: cell-based
Experimental: These tests involved plating of susceptible human host cells which are syncytium-sensitive with and without virus in microculture plates, adding various concentrations of the test compound, incubating the plates for 9 days (during which time infected, non-drug treated control cells are largely or totally destroyed by the virus), and then determining the number of remaining viable cells using a colorimetric endpoint.
Tissue culture plates were incubated at 37° C. in a humidified, 5% CO2 atmosphere and observed microscopically for toxicity and/or cytopathogenic effect (CPE). At 2 and 6 days after infection, fresh dilutions of each test article were prepared from the frozen stock, and a 20 μl volume of each dilution (prepared as a 10× concentration was added to the appropriate wells of both infected and uninfected cells.
On the 9th day post-infection, the cells in each well were resuspended and a 100 μl sample of each cell suspension was removed for use in an MTT assay. A 20 μl volume of a 5 mg/ml solution of 3-(4,5-dimethylthiazol-2-yl)-2,5-diphenyltetrazolium bromide (MTT) was added to each 100 μl cell suspension, and the cells were incubated at 37° C. in 5% CO2 for 4 hours. […] A 100 μl volume of a solution of 10% sodium dodecyl sulfate in 0.01N hydrochloric acid wa added to each sample, and the samples were incubated overnight. The absorbance at 590 nm was determined for each sample using a Molecular Devices Vmax microplate reader. This assay detects drug-induced suppression of viral CPE, as well as drug cytotoxicity, by measuring the generation of MTT-formazan by surviving cells.
Assays were done in 96-well tissue culture plates. CEM cells were treated with polybrene at a concentration of 2 μg/ml, and an 80 μl volume of cells (1×10^4 cells) was dispensed into each well. A 100 μl volume of each test article dilution (prepared as a 2× concentration) was added to 5 wells of cells, and the cells were incubated at 37° C. for 1 hour. A frozen culture of HIV-1, strain HTLV-IIIB, was diluted in culture medium to a concentration of 5×10^4 TCID50 per ml, and a 20 μl volume (containing 10^3 TCID50 of virus) was added to 3 of the wells for each test article concentration. […] A 20 μl volume of normal culture medium was added to the remaining wells to allow evaluation of cytotoxicity. Each plate contained 6 wells of untreated, uninfected, cell control samples and 6 wells of untreated, infected, virus control samples. Dideoxycytidine (DDC) and dideoxyadenosine (DDA) were included as positive control compounds.

almond β-glucosidase [1] = experiment: Beta-glucosidase inhibition assay, pH 4.8; format: biochemical; conditions: for IC50: read-out: Enzyme Inhibition-IC50, Almond β-Glucosidase pH 4.8
Experimental: (§1) Yeast alpha-glucosidase and almond beta-glucosidase activities were measured by a modification of the method of Evans, et al., Phytochemistry 22, 768-770 (1983). The modifications included 1) assay of activities at pH 7.4 in HEPES (N-2-hydroxyethylpiperazine-N'-2-ethanesulfonic acid) buffer, 2) measurement in 96 well microtiter plates and 3) inclusion of 10% DMSO in control and test samples.
(§2) The release of p-nitrophenol from the substrate p-nitrophenylglycoside was measured spectrophotometrically in the presence and absence of test compound. Each assay included a known inhibitor of the enzyme as a standard.
To 100 μl 50 mM sodium citrate buffer, pH 4.8, in a microtiter plate, add 15 μl test compound in DMSO (DMSO alone in control), 20 μl (0.017 units) beta-glucosidase (Sigma) in citrate buffer and pre-incubate at room temperature for 15 minutes. Add 25 μl 2.50 mM p-nitrophenyl-beta-D-glucopyranside in citrate buffer, as substrate. […] Add 50 μl 0.4M NaOH. Read absorption change at 405 nm in a Biotek EIA Autoreader. Each sample was tested in triplicate. […] Castanospermine was used as standard inhibitor.

yeast α-glucosidase = biological target: T1, yeast α-glucosidase (Saccharomyces cerevisiae, UniProt P53341); experiment: Alpha-glucosidase inhibition assay, pH 7.4; format: biochemical
T1 construct: purchased Sigma
T1 sequence (P53341 whole entry): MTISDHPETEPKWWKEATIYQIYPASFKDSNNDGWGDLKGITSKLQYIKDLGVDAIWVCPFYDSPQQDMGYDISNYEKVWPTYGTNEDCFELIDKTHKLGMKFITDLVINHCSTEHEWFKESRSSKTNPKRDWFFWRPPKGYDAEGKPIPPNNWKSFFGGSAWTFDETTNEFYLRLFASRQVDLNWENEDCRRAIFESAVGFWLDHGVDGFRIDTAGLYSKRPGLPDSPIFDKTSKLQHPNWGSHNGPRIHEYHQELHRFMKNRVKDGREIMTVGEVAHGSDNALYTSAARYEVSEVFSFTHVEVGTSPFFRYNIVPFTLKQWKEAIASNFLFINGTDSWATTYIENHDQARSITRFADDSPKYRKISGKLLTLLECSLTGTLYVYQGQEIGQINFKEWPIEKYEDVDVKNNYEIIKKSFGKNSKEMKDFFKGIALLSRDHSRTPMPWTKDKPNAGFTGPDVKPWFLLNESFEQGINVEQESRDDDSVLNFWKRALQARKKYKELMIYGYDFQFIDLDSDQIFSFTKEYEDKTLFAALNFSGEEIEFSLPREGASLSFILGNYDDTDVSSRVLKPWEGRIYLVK
Experimental: as §1, §2
To 100 μl 50 mM HEPES buffer, pH 7.4, in a microtiter plate, add 20 μl test compound in DMSO (DMSO alone in control), 40 μl (0.013 units) yeast alpha-glucosidase (Sigma) in HEPES buffer and pre-incubate at room temperature for 15 minutes. Add 40 μl 1.25 mM p-nitrophenyl-alpha-D-glucopyranoside (Sigma) in HEPES buffer, as substrate, and monitor absorbance change at 405 nm in Biotek EIA Auto-reader. Absorption change was measured at 15 to 25 minutes (reaction was linear for at least 30 minutes). Each sample was tested in triplicate. […] Deoxynojirimycin was used as standard inhibitor.

almond β-glucosidase [2] = experiment: Beta-glucosidase inhibition assay, pH 7.4; format: biochemical; conditions: for Inhibition Index (first, head is drawing 3) / Inhibition Index (second, head is drawing 4): ratio of IC50 values; for Inhibition Index (first, head is drawing 3): numerically almond pH 4.8 / almond pH 7.4; for Inhibition Index (second, head is drawing 4): numerically yeast α pH 7.4 / almond β pH 7.4; for Enzyme Inhibition, Almond β-Glucosidase pH 7.4 / IC50: pH 7.4; for IC50: read-out: Enzyme Inhibition-IC50, Almond β-Glucosidase pH 7.4
Experimental: as §1, §2
To 100 μl 50 mM HEPES buffer, pH 7.4, in a microtiter plate, add 20 μl test compound in DMSO (DMSO alone in control), 40 μl (0.136 units) beta-glucosidase (Sigma) in HEPES buffer and pre-incubate at room temperature for 15 minutes. Add 40 μl 1.25 mM p-nitrophenyl-beta-D-glucopyranoside in HEPES buffer, as substrate and monitor absorbance change at 405 nm in a Biotek EIA Autoreader. Absorption change was measured at 15 to 25 minutes (reaction is linear for at least 30 minutes). Each sample was tested in triplicate. […] Castanospermine was used as standard inhibitor.

visna virus = experiment: Plaque reduction assay, inhibition of visna virus in vitro; format: cell-based; conditions: Visna-maedi virus, read-out: Antiviral Activity (plaque reduction)
Experimental: (§3) Sheep choroid plexus(SCP) cells were obtained from American Type Culture Collection (ATCC) catalogue number CRL 1700 and were routinely passaged in vitro in Dulbecco's Modified Eagles (DME) medium supplemented with 20% fetal bovine serum (FBS). SCP cells were passaged once per week at a 1:2 or 1:3 split ratio. Visna was titrated by plaque assay in six-well plates. Virus pools were stored at -70° C.
(§4) SCP cells were cultured in 6-well plates to confluence. Wells were washed two times with serum free Minimal Essential Medium (MEM) to remove FBS. 0.2 ml of virus was added per well in MEM supplemented with 4 mM glutamine and gentamycin. After 1 hour adsorption, the virus was aspirated from each well. The appropriate concentration of each compound in 5 ml of Medium 199 (M-199) supplemented with 2% lamb serum, 4 mM glutamine, 0.5% agarose and gentamycin was added to each well. […] To terminate the test: cultures were fixed in 10% formalin, the agar removed, the monolayers stained with 1% crystal violet and plaques counted. Each compound concentration was run in triplicate. […] 0 is no toxicity observed while 4 is total lysing of the cell monolayer.

[3] = system: Sheep choroid plexus (SCP) cells; experiment: Toxicity in control wells (without virus) of the plaque reduction assay; format: cell-based; design: key: 0: no toxicity; 4: total cell lysates; conditions: graded 0 to 4
Experimental: as §3, §4
Toxicity graded on 0 to 4 scale 0 = no toxicity, 4 = total cell lysates

glucosidase I = conditions: Schweden et al.; compared to N-methyl- and N-butyl-derivatives; cited from earlier work

Compound: Cc1cn([C@H]2C[C@H](N=[N+]=[N-])[C@@H](CO)O2)c(=O)[nH]c1=O [AZT, 3'-azido-3'-deoxythymidine]
HIV inhibitory / antiviral activity (HIV; literature): inhibit replication of the virus in vitro

IC50 (HIV-1, strain HTLV-IIIB; Human immunodeficiency virus 1, IIIB, CCRF-CEM, 216 h, HIV-1, CEM cells, reduction of CPE, read-out: ID50 (median inhibitory dose)): 0.01 µg/mL (≈ 0.0473 µM)
Compound: Nc1ccn([C@H]2CC[C@@H](CO)O2)c(=O)n1 [DDC, Dideoxycytidine, reference compound]
inhibition at 0.01 µg/mL (HIV-1, strain HTLV-IIIB; Human immunodeficiency virus 1, IIIB, CCRF-CEM, 216 h, 0.01 μg/ml, read-out: Percent Reduction of CPE): 41.5%
inhibition at 0.032 µg/mL (HIV-1, strain HTLV-IIIB; Human immunodeficiency virus 1, IIIB, CCRF-CEM, 216 h, 0.032 μg/ml, read-out: Percent Reduction of CPE): 73.9%

Compound: O=c1[nH]cnc2c1ncn2[C@H]1CC[C@@H](CO)O1 [DDI, reference compound]
Percent Reduction of CPE (HIV-1, strain HTLV-IIIB; 1.0 μg/ml, 12960 min): 28.3%
Percent Reduction of CPE (HIV-1, strain HTLV-IIIB; 3.2 μg/ml, 12960 min): 49.6%
Percent Reduction of CPE (HIV-1, strain HTLV-IIIB; 10 μg/ml, 12960 min): 75.6%
ID50 (median inhibitory dose) (HIV-1, strain HTLV-IIIB; HIV-1, CEM cells, reduction of CPE, 12960 min): 3.0 µg/mL (≈ 12.7 µM)

Compound: CCN1C[C@H](O)[C@@H](O)[C@H](O)[C@H]1CO [Ethyl, reference compound]
IC50 (almond β-glucosidase [1]): ~1000 µM
reduction of the yield of infectious HIV (HIV; Karpas et al.): three
inhibition at 1000 µM (yeast α-glucosidase; pH 7.4, read-out: Enzyme Inhibition, Yeast α-Glucosidase pH 7.4): 51%
Enzyme Inhibition, Almond β-Glucosidase pH 7.4 (almond β-glucosidase [2]; at 1 mM): 67%
Inhibition Index (first, head is drawing 3) (almond β-glucosidase [2]): ~ 1
Inhibition Index (second, head is drawing 4) (almond β-glucosidase [2]): ~ 1

IC50 (almond β-glucosidase [1]): 423 µM
IC50 (yeast α-glucosidase; pH 7.4, read-out: Enzyme Inhibition-IC50, Yeast α-Glucosidase pH 7.4): 444 µM
IC50 (almond β-glucosidase [2]): 15 µM
Inhibition Index (first, head is drawing 3) (almond β-glucosidase [2]): 28.2
Inhibition Index (second, head is drawing 4) (almond β-glucosidase [2]): 29.5
Compound: CCCCCN1C[C@H](O)[C@@H](O)[C@H](O)[C@H]1CO [Example 1, 1,5-(Pentylimino)-1,5-dideoxy-D-glucitol]

Enzyme Inhibition, Almond β-Glucosidase pH 4.8 (almond β-glucosidase [1]; at 10 μM): 22%
inhibition at 10 µM (yeast α-glucosidase; pH 7.4, at 10 μM, read-out: Enzyme Inhibition, Yeast α-Glucosidase pH 7.4): 0%
Enzyme Inhibition, Almond β-Glucosidase pH 7.4 (almond β-glucosidase [2]; at 10 μM): 31%
Compound: CCCCCCCCCCCCCCN1C[C@H](O)[C@@H](O)[C@H](O)[C@H]1CO [Example 4, 1,5-(Tetradecylimino)-1,5-dideoxy-D-glucitol]
inhibition at 10 µM (visna virus; 10 μM): 84%
inhibition at 100 µM (visna virus; 0.1 mM): 100%
inhibition at 1000 µM (visna virus; 1 mM): 100%
Toxicity ([3]; 10 μM): 1
Toxicity ([3]; 0.1 mM): 4
Toxicity ([3]; 1 mM): 4

Compound: O[C@@H]1[C@@H](O)[C@@H](O)CN2CC[C@H](O)[C@@H]12 [L-1,6-diepicastanospermine]
HIV inhibitory / antiviral activity (HIV; literature): neither the epimer L-1,6-diepicastanospermine nor the stereoisomer of castanospermine, L-6-epicastanospermine, were found to be inhibitory

Compound: O[C@@H]1[C@@H](O)[C@@H](O)CN2CC[C@@H](O)[C@@H]12 [L-6-epicastanospermine]
HIV inhibitory / antiviral activity (HIV; literature): neither the epimer L-1,6-diepicastanospermine nor the stereoisomer of castanospermine, L-6-epicastanospermine, were found to be inhibitory

Compound: CN1C[C@H](O)[C@@H](O)[C@H](O)[C@H]1CO [Methyl, N-methyl-deoxynojirimycin, reference compound]
IC50 (almond β-glucosidase [1]): 366 µM
HIV inhibitory / antiviral activity (HIV; literature): significant antiviral activity
HIV inhibitory / antiviral activity (HIV; literature, listed as N-methyl derivative of deoxynojirimycin (DNJ)): activity against HIV
IC50 (yeast α-glucosidase): 54 µM
IC50 (almond β-glucosidase [2]): 102 µM
Inhibition Index (first, head is drawing 3) (almond β-glucosidase [2]): 3.5
Inhibition Index (second, head is drawing 4) (almond β-glucosidase [2]): 0.53

Compound: CCCCCCCCCCN1C[C@H](O)[C@@H](O)[C@H](O)[C@H]1CO [N-decyl-derivatives, reference compound]
Ki, glucosidase I (glucosidase I): greater Ki values than the N-methyl- and N-butyl-derivatives

Compound: O[C@H]1[C@H](O)[C@@H](O)CN2CC[C@H](O)[C@H]12 [castanospermine]
HIV inhibitory / antiviral activity (HIV; literature): inhibition of the cytopathic effect (CPE)
reduction in virion infectivity (HIV; literature): only a modest reduction in virion infectivity
